Assay results published in publication PMC7345836, “Absorption and Tissue Distribution of Siphonaxanthin from Green Algae” (Marine Drugs, 2020).

How the values were obtained:
[1] = Body weight, food intake and tissue weight of ICR mice fed siphonaxanthin diet; assay type: in vivo
Description: (§1) All experimental animal protocols were approved by the Animal Experimentation Committee of Kyoto University, Japan, for the care and use of experimental animals (Approval No. 26–35). Male ICR mice (7 weeks of age) were purchased from Japan SLC, Inc. (Hamamatsu, Japan). All mice were housed individually and maintained on an alternating 12-h light/dark cycle at a temperature of 23 ± 1 °C and free access to drinking water and chow (Oriental Yeast Co., Ltd., Tokyo, Japan). After an acclimatization period of 1 week, the mice were randomly divided into control and siphonaxanthin groups (n = 4 per group). Mice in the control group were fed an AIN-93G diet. The siphonaxanthin mouse group was fed the AIN-93G diet with siphonaxanthin supplementation, 65.79 nmol/g of diet (0.004%). The total food intake and body weight were recorded daily. After dietary supplementation for 16 days, the mice were anesthetized with isoflurane. Blood was collected from the caudal vena cava. Plasma was prepared by centrifuging at 400 g for 15 min at 4 °C. The tissues were rapidly removed, weighed, and immediately frozen in liquid nitrogen, and stored at −80 °C until use.

[2] = Tissue distribution and accumulation of siphonaxanthin and its metabolites in mice after 16-day dietary supplementation (HPLC); assay type: in vivo; settings: ICR mice
Description: as §1
Carotenoids were then extracted from the plasma and tissues. Briefly, aliquots of tissue samples (0.2 g) were homogenized in a 9-fold volume of 0.9% NaCl saline with a homogenizer dispenser (T10 basic ULTRA-TURRAX, IKA). Plasma samples were diluted with a 3-fold volume of Milli-Q water. The resultant tissue homogenates (0.9 mL) or diluent plasma samples (0.9 mL) were mixed with 3 mL of dichloromethane/methanol (2:1, v/v) to extract carotenoids. The samples were extracted three times, and the dichloromethane layer was collected after centrifugation at 1690 g at 4 °C for 10 min. After evaporation under nitrogen, the residue was resuspended in 20 μL of dichloromethane and methanol (1:1, v/v) for HPLC analysis.
HPLC analysis was performed using a Prominence LC system (Shimadzu, Kyoto, Japan) connected to a photodiode array detector (SPD-M20A, Shimadzu, Kyoto, Japan), followed by an ion trap-time of flight mass spectrometer (LCMS-IT-TOF, Shimadzu, Kyoto, Japan) equipped with an atmospheric pressure chemical ionization (APCI) source or electrospray ionization (ESI) source. Siphonaxanthin was separated on a TSK gel ODS-80Ts QA column (2.0 × 250 mm, 5 μm, Tosoh, Tokyo, Japan). The binary gradient mobile phase was methanol/water (83:17, v/v) containing 0.1% ammonium acetate as mobile phase A and ethyl acetate/methanol (30:70, v/v) containing 0.1% ammonium acetate as mobile phase B. The column was eluted at a flow rate of 0.2 mL/min using the following gradients: 0–30 min, 0% B; 30–45 min, 0–100% B; 45–60 min, 100% B; 60–65 min, 100–0% B; 65–70 min, 0% B. Siphonaxanthin was detected at 450 nm. The APCI source was heated at 200 °C, and the probe was maintained at 400 °C. Nitrogen was used as sheath gas at 2.0 L/min, and drying gas was used at 25 kPa. Mass spectra were recorded in the positive ion mode. For the ESI source, sheath gas was set at 1.5 L/min, and drying gas was used at 120 kPa. A spray voltage of 4.5 kV was used for positive ionization. The peak identities of siphonaxanthin and its possible metabolites were further confirmed from their characteristic UV-vis spectra and their positive ions. Siphonaxanthin was quantified from its peak area at 450 nm using an external standard calibration curve with purified siphonaxanthin. Due to the unavailability of standards, possible metabolites of siphonaxanthin were estimated from the siphonaxanthin standard curve.

Caco-2 cells = assay: Uptake and metabolism of micellar siphonaxanthin by differentiated Caco-2 cells; assay type: in vitro ADME, human; settings: Caco-2 cells incubated with 1 nmol/well siphonaxanthin solubilized micelles for 1, 3, 6 and 24 h
Description: Caco-2 cells obtained from the RIKEN Gene Bank (Tsukuba, Japan) were cultured in Dulbecco’s Modified Eagle’s Medium (DMEM) containing 10% fetal bovine serum (FBS), 1% penicillin-streptomycin (PS), and 1% non-essential amino acids in a humidified atmosphere of 95% air and 5% CO2 at 37 °C. For differentiation, cells were seeded in 12-well plates at a density of 2.0 × 10^5 cells/well in 1 mL DMEM medium described above and allowed to differentiate until day 22 from seeding. The medium was regularly changed three times a week. Experiments were performed at day 22 post-seeding on 12-well plates.
Siphonaxanthin solubilized in micelles was added to the medium for treatment, and micelle formation was performed as previously described. […] The concentration of micellar carotenoid was determined as 1.0 ± 0.05 μmol/L by HPLC before use in the following experiment.
The cell monolayers on 12-well plates were rinsed with the serum-free medium and then incubated in 1 mL of medium containing micellar siphonaxanthin. […] The residue was dissolved in methanol and subjected to quantitative and qualitative analysis. […] The concentration of siphonaxanthin in the medium was also analyzed. An aliquot of the medium was mixed with 4-fold methanol and subjected to the above HPLC analysis for quantify. […]

[3] = siphonaxanthin diet vs control diet, 16 days

SMILES: CC1=C[C@H](O)CC(C)(C)[C@H]1/C=C/C(C)=C/C=C/C(C)=C/C=C/C=C(C)/C=C/C=C(\CO)C(=O)CC1=C(C)C[C@@H](O)CC1(C)C [Siphonaxanthin, 3,19,3’-Trihydroxy-7,8-dihydro-β,ε-caroten-8-one]
- Body weight [1, 3]: not altered
- Weight of the other tissues [1, 3]: did not significantly decrease
- Weight of the spleen ([1]; siphonaxanthin diet vs control diet, 16 days, p < 0.05): significantly decreased
- Food intake ([1]; siphonaxanthin vs control group, 16-day experimental period): not altered
- Concentration in brain ([2]; Brain, 16-day diet with siphonaxanthin 65.79 nmol/g, mean ± SEM, n = 4, N.D., not detected): 0.4 ± 0.3 pmol/g
- % of the total carotenoids in brain ([2]; Brain, 16-day siphonaxanthin diet): 100%
- Concentration in colon ([2]; Colon, 16-day diet with siphonaxanthin 65.79 nmol/g, mean ± SEM, n = 4): 198 ± 24.5 pmol/g
- % of the total carotenoids in colon ([2]; Colon, 16-day siphonaxanthin diet): 82.5%
- % of the total carotenoids in epididymal WAT ([2]; Epididymal WAT, 16-day siphonaxanthin diet): 14.6%
- Concentration in epididymal WAT ([2]; Epididymal white adipose tissue, 16-day diet with siphonaxanthin 65.79 nmol/g, mean ± SEM, n = 4, N.D., not detected): 27.8 ± 14.3 pmol/g
- Concentration in heart ([2]; Heart, 16-day diet with siphonaxanthin 65.79 nmol/g, mean ± SEM, n = 4): 67.1 ± 25.2 pmol/g
- % of the total carotenoids in heart ([2]; Heart, 16-day siphonaxanthin diet): 52.2%
- Concentration in BAT ([2]; Interscapular brown adipose tissue, 16-day diet with siphonaxanthin 65.79 nmol/g, mean ± SEM, n = 4): 30.5 ± 11.4 pmol/g
- % of the total carotenoids in BAT ([2]; Interscapular brown adipose tissue, 16-day siphonaxanthin diet): 41.7%
- Concentration in kidney ([2]; Kidney, 16-day diet with siphonaxanthin 65.79 nmol/g, mean ± SEM, n = 4): 38.2 ± 15.7 pmol/g
- % of the total carotenoids in kidney ([2]; Kidney, 16-day siphonaxanthin diet): 84.1%
- Concentration in liver ([2]; Liver, 16-day diet with siphonaxanthin 65.79 nmol/g, mean ± SEM, n = 4): 37.1 ± 14.4 pmol/g
- % of the total carotenoids in liver ([2]; Liver, 16-day siphonaxanthin diet): 18.7%
- Concentration in lung ([2]; Lung, 16-day diet with siphonaxanthin 65.79 nmol/g, mean ± SEM, n = 4): 22.9 ± 8.2 pmol/g
- % of the total carotenoids in lung ([2]; Lung, 16-day siphonaxanthin diet): 38.8%
- % of the total carotenoids in mesenteric WAT ([2]; Mesenteric WAT, 16-day siphonaxanthin diet): 24.5%
- Concentration in mesenteric WAT ([2]; Mesenteric white adipose tissue, 16-day diet with siphonaxanthin 65.79 nmol/g, mean ± SEM, n = 4): 110 ± 50.8 pmol/g
- Concentration in muscle ([2]; Muscle, 16-day diet with siphonaxanthin 65.79 nmol/g, mean ± SEM, n = 4): 14.2 ± 7.5 pmol/g
- % of the total carotenoids in muscle ([2]; Muscle, 16-day siphonaxanthin diet): 52.6%
- Concentration in pancreas ([2]; Pancreas, 16-day diet with siphonaxanthin 65.79 nmol/g, mean ± SEM, n = 4): 46.1 ± 12.5 pmol/g
- % of the total carotenoids in pancreas ([2]; Pancreas, 16-day siphonaxanthin diet): 45.4%
- % of the total carotenoids in perirenal WAT ([2]; Perirenal WAT, 16-day siphonaxanthin diet): 13.3%
- Concentration in perirenal WAT ([2]; Perirenal white adipose tissue, 16-day diet with siphonaxanthin 65.79 nmol/g, mean ± SEM, n = 4): 22.1 ± 12.0 pmol/g
- % of the total carotenoids in plasma ([2]; Plasma, 16-day siphonaxanthin diet): 5.5%
- Concentration in small intestine ([2]; Small intestine, 16-day diet with siphonaxanthin 65.79 nmol/g, mean ± SEM, n = 4): 3428 ± 1389 pmol/g
- % of the total carotenoids in small intestine ([2]; Small intestine, 16-day siphonaxanthin diet): 79.5%
- Concentration in spleen ([2]; Spleen, 16-day diet with siphonaxanthin 65.79 nmol/g, mean ± SEM, n = 4): 20.6 ± 3.4 pmol/g
- % of the total carotenoids in spleen ([2]; Spleen, 16-day siphonaxanthin diet): 45.7%
- Concentration in stomach ([2]; Stomach, 16-day diet with siphonaxanthin 65.79 nmol/g, mean ± SEM, n = 4, siphonaxanthin standard curve): 2054 ± 636 pmol/g
- % of the total carotenoids in stomach ([2]; Stomach, 16-day siphonaxanthin diet): 94.0%
- Concentration in testis ([2]; Testis, 16-day diet with siphonaxanthin 65.79 nmol/g, mean ± SEM, n = 4): 25.0 ± 10.0 pmol/g
- % of the total carotenoids in testis ([2]; Testis, 16-day siphonaxanthin diet): 84.3%
- concentration at 16 days ([2]; male, mouse, oral, 65.79 nmol/g of diet, Plasma, 16-day diet with siphonaxanthin 65.79 nmol/g, mean ± SEM, n = 4): 18.3 ± 4 nM
- Cellular concentration of siphonaxanthin (Caco-2 cells): rapidly and linearly increased until 3 h after incubation, and then gradually increased until 24 h
- Concentration of siphonaxanthin in the medium (Caco-2 cells): decreased with increasing incubation time
